Data published in US6723235B2, “Apparatus for screening compound libraries” (priority 1998, dated 2004).

Target: cholera toxin B subunit (Vibrio cholerae serotype O1, UniProt P01556)
Assay type: binding

Sequence of cholera toxin B subunit (P01556 22-124 limits assumed): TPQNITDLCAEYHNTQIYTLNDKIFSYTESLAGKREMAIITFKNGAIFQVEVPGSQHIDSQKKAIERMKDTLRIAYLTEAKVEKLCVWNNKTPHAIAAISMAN

Row | SMILES | break through relative to void volume | break through volume (pH 6.9) [µL]
1 | COC(=O)CCCCCCCCOC1OC(COC2OC(CO)C(O)C(O)C2O)C(O)C(OC2OC(CO)C(O)C(O)C2O)C1O (centres unmarked) [compound 3, αMan(1→3)[αMan(1→6)]βMan-OGr] | broke through in the void volume | –
2 | CC(=O)N[C@H]1[C@H](O[C@@H]2[C@H](O[C@]3(C(=O)O)C[C@H](O)[C@@H](NC(C)=O)[C@H]([C@H](O)[C@H](O)CO)O3)[C@@H](O)[C@H](O[C@H]3[C@H](O)[C@@H](O)[C@H](O)O[C@@H]3CO)O[C@@H]2CO)O[C@H](CO)[C@H](O)[C@@H]1O[C@@H]1O[C@H](CO)[C@H](O)[C@H](O)[C@H]1O [compound 7, GM1 oligosaccharide] | – | ~300
